According to US20070155660A1, “Inhibition of voluntary ethanol consumption with selective melanocortin 4-receptor agonists” (priority 2003, published 2007):
Numbered stars: 1 amine (or outer) side, 2 acyl side, 3 side chain; on linkers, the order of the positions; unused ones are H or OH. Bridge positions count the residues as written; N and C are the ends. Square brackets hold non-standard residues; d marks the D form. Peptide text beside a SMILES is read from it. ξ: configuration not given here. dPhe(4-Cl) = N[C@H](Cc1ccc(Cl)cc1)C(=O)O; 2Nal = N[C@@H](Cc1ccc2ccccc2c1)C(=O)O; Suc = O=C(CCC(=O)[*:2])[*:1]; ξE = NC(CCC(=O)O)C(=O)O; ξDab = NCCC(N)C(=O)O; ξK = NCCCCC(N)C(=O)O; ξDap = NCC(N)C(=O)O; Ava = NCCCCC(=O)O; GABA = NCCCC(=O)O

What was measured:
MC4R [1] = target: T1, MC4R (Homo sapiens, UniProt P32245); assay: cAMP assay in CHO cells expressing a human melanocortin receptor; assay type: cell-based; design: expressed in transfected cells; host or cells: Chinese hamster ovary (CHO) cells; details: for Selectivity cAMP EC50 3R/4R: ratio of EC50 hMC-3R / hMC-4R; for Selectivity cAMP EC50 5R/4R: ratio of EC50 hMC-5R / hMC-4R
Experimental: (§1) Chinese hamster ovary cells expressing a human melanocortin receptor were rinsed with calcium-and magnesium-free PBS (Life Technologies), and detached from the tissue culture flasks by 5-minutes incubation with enzyme-free dissociation buffer (S-014-B, Specialty Media). Cells were collected by centrifugation and resuspended in Earle's balanced salt solution (Life Technologies) with addition of 10 mM 4-(2-hydroxyethyl)-1-piperazineethanesulfonic acid (Hepes) buffer, pH 7.5, 5 mM MgCl2, 1 mM glutamine, and 1 mg/ml bovine serum albumin to concentration of 1-5×10^6 cells/ml. Subsequently, cells were counted and the cell suspension was treated with the phosphodiesterase inhibitor 3-isobutyl-1-methylxanthine (to concentration of 0.6 mM).
(§2) A test compound was dissolved in dimethyl sulfoxide (DMSO, 10^−3 to 10^−8 M), diluted with buffer and 0.1 volume of the solution was added to 0.9 volumes of the cell suspension (1 to 5×10^5 cells); final concentration of DMSO was 1%. After 45 minutes at room temperature, cells were lysed by incubation at 100° C. for 5 minutes to release accumulated cAMP. Accumulation of cAMP was measured in an aliquot of the cell lysate with the Amersham (Arlington Heights, Ill.) cAMP detection assay kit (RPA556). The amount of cAMP produced in response to a tested compound was compared to the amount of cAMP produced in response to α-MSH, defined as a 100% agonist. All active peptides were characterized in three independent experiments.
Target sequence in this assay (P32245 whole entry): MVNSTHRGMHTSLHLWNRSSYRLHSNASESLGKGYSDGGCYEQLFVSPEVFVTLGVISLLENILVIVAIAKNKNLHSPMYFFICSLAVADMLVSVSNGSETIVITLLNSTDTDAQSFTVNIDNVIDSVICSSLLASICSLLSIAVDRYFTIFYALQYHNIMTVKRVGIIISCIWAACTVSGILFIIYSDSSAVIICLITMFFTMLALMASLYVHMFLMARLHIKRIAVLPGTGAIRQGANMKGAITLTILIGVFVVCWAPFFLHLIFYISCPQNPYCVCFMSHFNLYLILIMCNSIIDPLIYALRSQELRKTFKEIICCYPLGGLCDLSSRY

MC4R [2] = target: T1, MC4R; assay: Competitive binding assay, [125I]-NDP-α-MSH, CHO cell membranes; design: expressed in transfected cells; host or cells: Chinese hamster ovary (CHO) cells; details: for Selectivity Binding IC50 3R/4R: ratio of IC50 hMC-3R / hMC-4R; for Selectivity Binding IC50 5R/4R: ratio of IC50 hMC-5R / hMC-4R
Experimental: The peptides of the present invention were evaluated for […] in receptor binding assay. Crude membrane preparations were obtained from Chinese hamster ovary cells expressing human MC3, MC4, and MC5 receptors. Cells were rinsed with phosphate-buffered saline (PBS) lacking CaCl2 or MgCl2 (Life Technologies, Gaithersburg, Md., USA), and then detached with enzyme-free dissociation media (Specialty Media, Lavellette, N.J., USA). Cells were pelleted at 2800×g for 10 minutes and resuspended in membrane buffer (20 mM Tris, pH 7.2, 5 mM ethylenediaminetetraacetic acid) with 5 μg/ml leupeptin, 5 μg/ml aprotinin, 40 μg/ml bacitracin, and 25 μg/m pefabloc (Boehringer Mannheim). The cells were […] with 10 strokes by using a motor-driven Teflon-coated pestle in a glass homogenizer at low speed. The resulting cell suspension was centrifuged at 4100×g, 4° C., for 20 minutes. The pellet was resuspended in fresh membrane buffer with protease inhibitors, aliquoted, snap-frozen in liquid nitrogen, and stored at −80° C. The resulting crude membranes were titrated to determine the optimal level necessary for performing binding studies. Results
Binding reactions (total volume=[…]) contained MBB (50 mM Tris, pH 7.2, 2 mM CaCl2, 1 mM MgCl2), 0.1% bovine serum albumin, crude membranes prepared from cells expressing human MC3, MC4, or MC5 receptor, 200 pM of [125I]-NDP-α-MSH (Amersham, Arlington Heighs, Ill., USA), and increasing concentrations of unlabeled test compounds dissolved in dimethylsulfoxide (final concentration=2%). Reactions were incubated for 1 hour without shaking and then filtered through 96-well filter plates (Packard), presoaked in 1% polyethyleneimine. Filters were washed 3 times with TNE buffer (50 mM Tris, pH 7.4, 5 mM ethylenediaminetetraacetic acid, 150 mM NaCl), dried and counted by using Microscint-20 in a Topcount scintillation counter (Packard). Nonspecific binding was determined in the presence of 2 μm of unlabeled NDP-α-MSH (Peninsula Laboratories). Active peptides were evaluated in three independent experiments.
Target sequence in this assay (P32245 whole entry): as above

MC5R [3] = target: T2, MC5R (Homo sapiens, UniProt P33032); assay: cAMP assay in CHO cells expressing a human melanocortin receptor; assay type: cell-based; design: expressed in transfected cells; host or cells: Chinese hamster ovary (CHO) cells; details: @ 5 (concentration unit not given); cAMP relative to α-MSH defined as 100% agonist
Experimental: as §1, §2
Target sequence in this assay (P33032 whole entry): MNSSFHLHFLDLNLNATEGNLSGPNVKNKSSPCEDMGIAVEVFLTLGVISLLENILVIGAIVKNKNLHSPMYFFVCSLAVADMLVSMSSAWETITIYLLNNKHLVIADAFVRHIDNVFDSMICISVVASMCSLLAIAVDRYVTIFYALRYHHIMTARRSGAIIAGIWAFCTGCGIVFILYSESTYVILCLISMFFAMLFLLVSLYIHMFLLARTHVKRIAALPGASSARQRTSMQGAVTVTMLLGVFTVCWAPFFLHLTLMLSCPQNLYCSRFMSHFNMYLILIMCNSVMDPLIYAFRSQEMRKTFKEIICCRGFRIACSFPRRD

AA rats = details: MTII by central infusion; cited from earlier work
MC4R [4] = target: T1, MC4R; details: cited from earlier work
Target sequence in this assay (P32245 whole entry, species assumed): as the sequence (P32245 whole entry) above

C57BL/6J mice = assay: Ethanol consumption following central (i.c.v.) infusion of MC4R agonist; assay type: in vivo; details: for reduction of alcohol consumption: 20% ethanol, vs aCSF
Excerpt: The generation of Mc3r^−/− mice has been described (Chen, S. et al., Nature Genetics (2000) 26: 97-102). Mc3r^−/− mice are born at the expected frequency and are viable and fertile. […] Studies described below utilized male and female Mc3r^−/− and/or Mc3r^+/+ mice of a C57BL/6J genetic background, 8 to 12 weeks of age at the start of experiment. Non-littermate heterozygous (Mc3r^+/−) mice were bred, resulting in Mc3r^−/− and Mc3r ^+/+ F2 littermate mice. Mice were individually housed in polypropylene cages with wood-chip bedding and had ad libitum access to standard rodent chow (Teklad, Madison, Wis.) and water throughout the experiments except where noted. The colony room was maintained at approximately 22° C. with a 12h:12h light:dark cycle. All procedures used in the present research were in compliance with the National Institute of Health guidelines, and the protocols were approved by the University of North Carolina Animal Care and Use Committee.
Naïve mice were anesthetized with a cocktail of ketamine (117 mg/kg) and xylazine (7.92 mg/kg) and surgically implanted with a 26-gauge cannula (Plastic One, Roanoke, Va.) aimed at the left-lateral ventricle using the following stereotaxic coordinates: 0.2 mm posterior to bregma, 1.0 mm lateral to the midline, and 2.3 mm ventral to the skull surface. Mice were allowed to recover for approximately 2 weeks before experimental procedures were initiated. After experimental procedures, cannula placement was verified histologically. The i.c.v. infusions were given in a 1.0 μl volume with a 5.0 μl Hamilton syringe and infused manually over a one minute period. Mice were acclimated for approximately 2 weeks to drinking from two bottles (continuous 24 hour/day access), one containing water and the other containing 20% ethanol, and body weights were recorded weekly. Following acclimation, mice were distributed to groups based on the last 4-days of baseline ethanol consumption (g/kg/day).
Mice were weighed and ethanol, water, and food were removed from their cages two hours before the beginning of the dark cycle. For the study with i.c.v. infusion of MC4R agonist, C57B1/6J mice were given infusion of either 1.0 or 3.0 μg of the MC4R-selective agonist, cyclo(NH—CH2—CH2—CO-His-D-Phe-Arg-Trp-Glu)-NH2 (Compound A, Phoenix Pharmaceuticals, Inc., Belmont, Calif.) dissolved in aCSF (ns=7 and 8, respectively) or an equal volume of aCSF (n=10) one hour before the beginning of the dark cycle. The 20% ethanol solution, water, and food were returned immediately before the dark cycle and consumption measures were recorded 4 hours and 24 hours later. One-way (drug) ANOVAs were used to assess consumption of 20% ethanol following i.c.v. infusion of MC4R agonist or aCSF.

MC5R [5] = target: T2, MC5R; details: cited from earlier work
Target sequence in this assay (P33032 whole entry, species assumed): as the sequence (P33032 whole entry) above

| Molecule | Selectivity cAMP EC50 3R/4R (MC4R [1]) | Selectivity cAMP EC50 5R/4R (MC4R [1]) | Selectivity Binding IC50 3R/4R (MC4R [2]) | Selectivity Binding IC50 5R/4R (MC4R [2]) | also measured |
| --- | --- | --- | --- | --- | --- |
| N=C(N)NCCC[C@@H]1NC(=O)[C@@H](Cc2ccccc2)NC(=O)[C@H](Cc2c[nH]cn2)NC(=O)CCC(=O)NCCCCC(C(N)=O)NC(=O)[C@H](Cc2c[nH]c3ccccc23)NC1=O (stereo partly shown) [Example 1] (H[dF]RW[ξK]-NH2; linker N-5 via Suc) | 33 | 357 | 16.7 | 124 | – |
| N=C(N)NCCC[C@@H]1NC(=O)[C@@H](Cc2ccccc2)NC(=O)[C@H](Cc2c[nH]cn2)NC(=O)CCC(=O)NCCC(C(N)=O)NC(=O)[C@H](Cc2c[nH]c3ccccc23)NC1=O (stereo partly shown) [Example 2] (H[dF]RW[ξDab]-NH2; linker N-5 via Suc) | 83 | 758 | 51.3 | 205 | – |
| N=C(N)NCCC[C@@H]1NC(=O)[C@@H](Cc2ccccc2)NC(=O)[C@H](Cc2c[nH]cn2)NC(=O)CCC(=O)NCC(C(N)=O)NC(=O)[C@H](Cc2c[nH]c3ccccc23)NC1=O (stereo partly shown) [Example 3] (H[dF]RW[ξDap]-NH2; linker N-5 via Suc) | 17.8 | – | 22.5 | 50.7 | cAMP Assay hMC-5R, % @ 5 (MC5R [3]): 12% @ 5 |
| N=C(N)NCCC[C@@H]1NC(=O)[C@@H](Cc2ccc(Cl)cc2)NC(=O)[C@H](Cc2c[nH]cn2)NC(=O)CCC(=O)NCCCCC(C(N)=O)NC(=O)[C@H](Cc2c[nH]c3ccccc23)NC1=O (stereo partly shown) [Example 4] (H[dPhe(4-Cl)]RW[ξK]-NH2; linker N-5 via Suc) | 54 | 229.7 | 10 | 54 | – |
| N=C(N)NCCC[C@@H]1NC(=O)[C@@H](Cc2ccccc2)NC(=O)[C@H](Cc2c[nH]cn2)NC(=O)CCC(=O)NCCCCC(C(N)=O)NC(=O)[C@H](Cc2ccc3ccccc3c2)NC1=O (stereo partly shown) [Example 5] (H[dF]R[2Nal][ξK]-NH2; linker N-5 via Suc) | 97.3 | 1351.3 | 33.85 | 1538 | – |
| N=C(N)NCCC[C@@H]1NC(=O)[C@@H](Cc2ccccc2)NC(=O)[C@H](Cc2c[nH]cn2)NC(=O)CCCCNC(=O)CCC(C(N)=O)NC(=O)[C@H](Cc2c[nH]c3ccccc23)NC1=O (stereo partly shown) [Example 6] ([Ava]H[dF]RW[ξE]-NH2; lactam N-6) | 70.4 | 703.7 | 48 | 750 | – |
| N=C(N)NCCC[C@@H]1NC(=O)[C@@H](Cc2ccccc2)NC(=O)[C@H](Cc2c[nH]cn2)NC(=O)CCCNC(=O)CCC(C(N)=O)NC(=O)[C@H](Cc2c[nH]c3ccccc23)NC1=O (stereo partly shown) [Example 7] ([GABA]H[dF]RW[ξE]-NH2; lactam N-6) | 54.39 | 877 | 44 | 121.9 | – |
| N=C(N)NCCC[C@@H]1NC(=O)[C@@H](Cc2ccccc2)NC(=O)[C@H](Cc2c[nH]cn2)NC(=O)CNC(=O)CCC(C(N)=O)NC(=O)[C@H](Cc2c[nH]c3ccccc23)NC1=O (stereo partly shown) [Example 9] (GH[dF]RW[ξE]-NH2; lactam N-6) | 62.86 | – | 3.45 | 3.45 | cAMP Assay hMC-5R, % @ 5 (MC5R [3]): 15% @ 5 |
| MTII | – | – | – | – | effect on voluntary ethanol drinking (AA rats): significantly reduces voluntary ethanol drinking |
| cyclo(NH—CH2—CH2—CO-His-D-Phe-Arg-Trp-Glu)-NH2 (FRWE; cyclic with beta-alanine linker, His, C-terminal amide; printed: Phe-Arg-Trp-Glu) [Compound A] | – | – | – | – | selectivity for MC4R over MC3R (MC4R [4]): 90 fold; selectivity for MC4R over MC5R (MC4R [4]): greater than 2000 fold; reduction of alcohol consumption (C57BL/6J mice; 1.0 μg i.c.v.): 67%; reduction of alcohol consumption (C57BL/6J mice; 3.0 μg i.c.v.): 86%; effect on ethanol drinking (C57BL/6J mice; C57BL/6J mice): significant reduction of ethanol drinking; less alcohol consumed than untreated controls (C57BL/6J mice; C57BL/6J mice, dose not given): up to 86%; binding and activation of MC5R (MC5R [5]): extremely weak binding and activation of MC5R |
